A short description of data set [1]: Density measurements (bulk, tap, Carr's compressibility index). Format: physicochemical. The protocol:
Dublin 12) with a funnel. The weight of the powder required to fill the 1 ml graduated syringe was recorded to calculate bρ. […] The resultant volume was recorded [NT]ρ. Each measurement was performed in triplicate. The Carr's compressibility index of some of the systems was calculated from the following equation: compressibility index(%)=[(tap density-bulk density)/tap density]×100 Lower values of the index are desirable as they indicate better flow.

The nature of data set [2]: Suspension sedimentation analysis (water/Tween 80). Format: physicochemical. As to conditions: water/Tween 80 (96:4 v/v). The protocol:
Sedimentation analysis was carried out on suspensions of bendroflumethiazide (BFMT) and sulfadimidine. 25 ml suspensions were prepared by mixing water and Tween 80 (96:4 v/v) with 150 mg of the drug powder. The suspensions were transferred to 25 ml graduated cylinders, mixed thoroughly and their sedimentation observed over time.

Data set [3] in a line: Suspension stability of MDI systems in HFA-134a. As to conditions: BFMT in HFA-134a. Format: physicochemical. The protocol: In order to prepare metered dose inhalers, 20 mg of powder was weighed into glass vials. Afterwards a 25 μl metering valve (Bespak, UK) was crimped onto the glass vial and the liquid propellant HFA-134a was added through the nozzle. The final weight of each MDI (without the container and metering valve) was 10 g. The last two steps were performed using a Pamasol P 2016 aerosol filling station (Pamasol Willi Mader AG, Pfäffikon, Switzerland). Prepared MDIs were homogenised in a Bransonic 220 ultrasonic bath (UK) for 1 min.

Data set [4] in a line: In vitro dry powder inhaler deposition, Andersen Cascade Impactor. The procedure:
The pulmonary deposition of the dry powders was investigated using an Andersen Cascade Impactor (ACI) (1 ACFM Eight Stage Non-Viable Cascade Impactor, Graseby Andersen, Atlanta, Ga.). […] Size 3 hard gelatin capsules (Farillon Ltd., U.K.) were filled to approximately 50% with the dry powder (approximately 25 mg of powder). […] The amount of powder deposited on each stage of the impactor was determined by weight, UV analysis or HPLC analysis.

These results are taken from patent publication US20100092453A1, “Method of producing porous microparticles” (priority 2006, published 2010).

In data set [1], `O=C(O)c1cc(=O)c2c(OCC(O)COc3cccc4oc(C(=O)O)cc(=O)c34)cccc2o1` [sodium cromoglycate] had a bulk density of 0.341 ± 0.024 g/mL and a tap density of 0.661 ± 0.023 g/mL.

As to `NS(=O)(=O)c1cc2c(cc1C(F)(F)F)NC(Cc1ccccc1)NS2(=O)=O` (stereo not shown) [raw BFMT, bendroflumethiazide], the “sedimentation of powder particles in suspension (observation)” value in data set [2] (observed up to four hours) is on record as “completely settle in a matter of seconds”. Also, the “sedimentation in MDI after 4 hours” value in data set [3] (4 hours) was “noticeable sedimentation”. In data set [3] (7 days), the “sedimentation in MDI after seven days” value is on record as “completely settled”. In data set [1], the bulk density stood at 0.29 g/mL and the tap density was 0.58 g/mL.

As for `Cc1cc(C)nc(NS(=O)(=O)c2ccc(N)cc2)n1` [Micronised sulfadimidine, sulfadimidine], the “mass median aerodynamic diameter (MMAD)” value in data set [4] is 14.4±4.9 μm. Also, the “time to completely settle in suspension” value in data set [2] is at most 30 min. The molecule also gave a compressibility index in data set [1] (Carr's index from tap and bulk density) of 50.3%.
